Reference: patent US20110076283A1, “METHOD FOR PREDICTING AND DIAGNOSING BRAIN TUMOR” (Universite De Lausanne, priority 2008, published 2011)

Columns and labels:
glioblastoma [1] = conditions: glioblastoma patients; in particular with epigenetically silenced MGMT gene; cited from earlier work
glioblastoma [2] = test: Multivariate Cox proportional hazards model of the treatment effect on survival (chemoradiotherapy versus radiotherapy alone) in glioblastoma patients; format: in vivo, human; conditions: MGMT-methylated patients, multivariate Cox model N = 68
Method: Gene expression profiles were established from 80 frozen GBM samples obtained from 76 patients, comprising 70 tumors from initial surgery, and 10 samples resected at recurrence, and from four non-neoplastic brain tissue samples. All patients were treated within a phase II, or a randomized phase III trial {Stupp, 2005 #2126} and provided written informed consent for molecular studies of their tumor. The protocol was approved by the ethics committee at each center. Sixty-eight patients with complete molecular and clinical information were included in survival analysis, with a median age of 51 years (range: 26-70 yrs) at enrollment. Thereof, 42 received TMZ/RT→TMZ, while 26 were randomized to RT only. Second-line therapy frequently involved alkylating agents including TMZ. The validation set comprised 76 independent patients of the EORTC/NCIC-study (Stupp et al., 2005), 39 randomized to TMZ/RT→TMZ, and 37 to RT (median age 54 yrs, range 25-69 yrs), whose GBM were available on a tissue microarray. There was no difference in survival as compared to the general trial population, neither in the test population, nor the validation set (P>0.2).
For each covariate, the hazards ratio, its 95% confidence interval and the associated Wald p-value were examined The Benjamini Hochberg procedure ^s was applied as multiple testing correction method to convert p-values into estimated false discovery rates (FDR). The hazards ratio for a gene (or the mean of a cluster) were standardized by referring them to a variation corresponding to an interquartile range, in order to obtain an interpretable value, for microarray as well as for real-time PCR data. Therefore, the interpretation of an estimated hazard ratio of 1.5 is that the hazard rate increases by 50 percent for an increase of one interquartile range of the log-scale gene expression, independently of the expression level at which it is calculated.
The log-hazard function was defined as:
g(t,X,TMZ,MGMT,age,β)=ln [h0(t)]+β1X+β2TMZ+β3MGMT+β4age+β5(X*TMZ)+β6(TMZ*MGMT) […]

glioblastoma [3] = conditions: in conjunction with TMZ/RT→TMZ; patients with a methylated MGMT gene promoter; cited from earlier work

SMILES	survival (glioblastoma [1])	Estimated Hazard Ratios (HR) for Treatment Effect (glioblastoma [2]; G98 expression level 1st quartile)	Estimated Hazard Ratios (HR) for Treatment Effect (glioblastoma [2]; G98 expression level 3rd quartile)	Estimated Hazard Ratios (HR) for Treatment Effect (glioblastoma [2]; G98 expression level median)	anti-tumor activity (glioblastoma [3])
Cn1nnc2c(C(N)=O)ncn2c1=O [TMZ/RT→TMZ, temozolomide]	significantly prolong survival	0.13	0.47	0.25	
CC(C)[C@H]1C(=O)N[C@@H](CCCN=C(N)N)C(=O)NCC(=O)N[C@@H](CC(=O)O)C(=O)N[C@H](Cc2ccccc2)C(=O)N1C [cilengitide]					increased anti-tumor activity
